Experimental data taken from the supplement of paper PMC11208160.

Experiment: recombinant UMI read abundance after kanamycin selection (control-corrected) (log10(CPM+1)); higher = more efficient recombination; extreme values may be limits of the assay; sequences stand for … in AGTGCAGAGAAAATCGGCCAGTTTTCTCTGCCTGCAGTCCGCATGCCGTGGGACCCCTTGGGTTCTAACCTGTTGCCTAGATTTATGCAGCGGACTGCCTTTCTCCCAAAGTGATAAACCGG…AGGTTGGTTTCACT; site = the 11-nt donor
In short: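 Values, expressed as log10(CPM+1), derive from recombinant UMI counts converted to CPM, averaged across replicates and scaled by control-derived factors. Plating was with IPTG (0.07 mM) plus kanamycin or unselected, two replicates each. The screen pooled donor and donor-binding-loop pairs for the IS621 bridge recombinase in Escherichia coli.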
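Also: IS621 bridge recombinase in Escherichia coli cells against a fixed T5 target plasmid.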

Sequence | recombinant UMI read abundance (log10)
AGGTTCCCATGGACCGGTTTTCCCGGTAATCCGTATTTGTA (site AGGTTCCCTCA) | 0.0195
AGGTTCCCATGGACCGGTTTTCCCGGTAATCCGTATTTGTA (site AGGTTCCCTGA) | 0
AGGTTCCCATGGACCGGTTTTCCCGGTAATCCGTATTTGTA (site AGGTTCCCTTA) | 1.5
AGGTTGCCATGGACCGGTTTTCCCGGTAATCCGTATTTGTG (site AGGTTACCTCA) | 0.00238
AGGTTGCCATGGACCGGTTTTCCCGGTAATCCGTATTTGTG (site AGGTTCCCTCA) | 0.00991
AGGTTGCCATGGACCGGTTTTCCCGGTAATCCGTATTTGTG (site AGGTTGCCTCA) | 0.00688
AGGTTGCCATGGACCGGTTTTCCCGGTAATCCGTATTTGTG (site AGGTTTCCTCA) | 0.00563
AGTAATGCATGGACCGGTTTTCCCGGTAATCCGTATTTGAG (site AGTAATGCTCT) | 2.15
AGTACACCATGGACCGGTTTTCCCGGTAATCCGTATTTGAC (site AGTACACCTGT) | 0
AGTACACCATGGACCGGTTTTCCCGGTAATCCGTATTTGAC (site CGTACACCTGT) | 0.0138
AGTACACCATGGACCGGTTTTCCCGGTAATCCGTATTTGAC (site GGTACACCTGT) | 0
AGTACACCATGGACCGGTTTTCCCGGTAATCCGTATTTGAC (site TGTACACCTGT) | 0
AGTAGATCATGGACCGGTTTTCCCGGTAATCCGTATTTGGA (site AGTAGATCTTC) | 1.45
AGTAGGTCATGGACCGGTTTTCCCGGTAATCCGTATTTGAA (site AGTAGGTCTTT) | 1.07
AGTCACTCATGGACCGGTTTTCCCGGTAATCCGTATTTGCA (site AGTCACTCTTG) | 2.8
AGTCAGCCATGGACCGGTTTTCCCGGTAATCCGTATTTGGA (site AGTCAGCCTTC) | 0.0114
AGTCCACCATGGACCGGTTTTCCCGGTAATCCGTATTTGGG (site AGTCCACCTCC) | 0.00962
AGTCGGTCATGGACCGGTTTTCCCGGTAATCCGTATTTGGC (site AGTCGGTCTGC) | 0
AGTCTGACATGGACCGGTTTTCCCGGTAATCCGTATTTGCT (site AGTCTGACTAG) | 1.87
AGTGCCACATGGACCGGTTTTCCCGGTAATCCGTATTTGAG (site AGTGCCACTCT) | 0.4
AGTGCCCCATGGACCGGTTTTCCCGGTAATCCGTATTTGCT (site AGTGCCCCTAG) | 0.594
AGTGCTCCATGGACCGGTTTTCCCGGTAATCCGTATTTGAA (site AGTGCTCCTTT) | 0.416
AGTTACACATGGACCGGTTTTCCCGGTAATCCGTATTTGCC (site AGTTACACTGG) | 2.42
AGTTATGCATGGACCGGTTTTCCCGGTAATCCGTATTTGGA (site AATTATGCTTC) | 0.159
AGTTATGCATGGACCGGTTTTCCCGGTAATCCGTATTTGGA (site ACTTATGCTTC) | 0.849

Sequence | recombinant UMI read abundance (log10)
AGTTATGCATGGACCGGTTTTCCCGGTAATCCGTATTTGGA (site AGTTATGCTTC) | 0.923
AGTTATGCATGGACCGGTTTTCCCGGTAATCCGTATTTGGA (site ATTTATGCTTC) | 0.709
AGTTGTACATGGACCGGTTTTCCCGGTAATCCGTATTTGGT (site AGTTGTACTAC) | 0.56
AGTTGTCCATGGACCGGTTTTCCCGGTAATCCGTATTTGGG (site AGTTGTCCTCC) | 0.0152
AGTTGTGCATGGACCGGTTTTCCCGGTAATCCGTATTTGAA (site AGTTGTGCTTT) | 0.535
AGTTGTTCATGGACCGGTTTTCCCGGTAATCCGTATTTGGC (site AGTTGTTCTGC) | 1.34
AGTTTGGCATGGACCGGTTTTCCCGGTAATCCGTATTTGCT (site AGTTTGGCTAG) | 0.0222
AGTTTGGCATGGACCGGTTTTCCCGGTAATCCGTATTTGCT (site CGTTTGGCTAG) | 0
AGTTTGGCATGGACCGGTTTTCCCGGTAATCCGTATTTGCT (site GGTTTGGCTAG) | 0
AGTTTGGCATGGACCGGTTTTCCCGGTAATCCGTATTTGCT (site TGTTTGGCTAG) | 0.0837
ATAAAGGCATGGACCGGTTTTCCCGGTAATCCGTATTTGGG (site ATAAAGGCTCC) | 1.03
ATAACTCCATGGACCGGTTTTCCCGGTAATCCGTATTTGCC (site ATAACTCCTGG) | 1.64
ATAAGCACATGGACCGGTTTTCCCGGTAATCCGTATTTGAT (site ATAAGCACTAT) | 2.23
ATAAGCCCATGGACCGGTTTTCCCGGTAATCCGTATTTGAC (site ATAAGACCTGT) | 0
ATAAGCCCATGGACCGGTTTTCCCGGTAATCCGTATTTGAC (site ATAAGCCCTGT) | 2.3
ATAAGCCCATGGACCGGTTTTCCCGGTAATCCGTATTTGAC (site ATAAGGCCTGT) | 0.528
ATAAGCCCATGGACCGGTTTTCCCGGTAATCCGTATTTGAC (site ATAAGTCCTGT) | 0.889
ATAAGGCCATGGACCGGTTTTCCCGGTAATCCGTATTTGTC (site ATAAGGCCTGA) | 1.94
ATAAGGCCATGGACCGGTTTTCCCGGTAATCCGTATTTGTC (site ATAAGGCCTGC) | 0
ATAAGGCCATGGACCGGTTTTCCCGGTAATCCGTATTTGTC (site ATAAGGCCTGG) | 2.46
ATAAGGCCATGGACCGGTTTTCCCGGTAATCCGTATTTGTC (site ATAAGGCCTGT) | 0
ATAAGGTCATGGACCGGTTTTCCCGGTAATCCGTATTTGCA (site ATAAGGTCTTG) | 2.96
ATACAAGCATGGACCGGTTTTCCCGGTAATCCGTATTTGAG (site ATACAAGCTCT) | 2.31
ATACAAGCATGGACCGGTTTTCCCGGTAATCCGTATTTGAG (site ATCCAAGCTCT) | 0.803
ATACAAGCATGGACCGGTTTTCCCGGTAATCCGTATTTGAG (site ATGCAAGCTCT) | 0.923

Sequence | recombinant UMI read abundance (log10)
ATACAAGCATGGACCGGTTTTCCCGGTAATCCGTATTTGAG (site ATTCAAGCTCT) | 0.673
ATACATGCATGGACCGGTTTTCCCGGTAATCCGTATTTGCT (site ATACATGCTAG) | 2.75
ATACGGCCATGGACCGGTTTTCCCGGTAATCCGTATTTGAC (site ATAAGGCCTGT) | 0
ATACGGCCATGGACCGGTTTTCCCGGTAATCCGTATTTGAC (site ATACGGCCTGT) | 0
ATACGGCCATGGACCGGTTTTCCCGGTAATCCGTATTTGAC (site ATAGGGCCTGT) | 0
ATACGGCCATGGACCGGTTTTCCCGGTAATCCGTATTTGAC (site ATATGGCCTGT) | 0
ATACTAACATGGACCGGTTTTCCCGGTAATCCGTATTTGGA (site ATACTAACTTC) | 1.2
ATACTAACATGGACCGGTTTTCCCGGTAATCCGTATTTGGA (site CTACTAACTTC) | 0.853
ATACTAACATGGACCGGTTTTCCCGGTAATCCGTATTTGGA (site GTACTAACTTC) | 0.275
ATACTAACATGGACCGGTTTTCCCGGTAATCCGTATTTGGA (site TTACTAACTTC) | 2.05
ATACTGGCATGGACCGGTTTTCCCGGTAATCCGTATTTGTT (site ATACTGGCTAA) | 0.589
ATAGACTCATGGACCGGTTTTCCCGGTAATCCGTATTTGGT (site ATAGACTCTAC) | 2.79
ATAGCATCATGGACCGGTTTTCCCGGTAATCCGTATTTGAC (site ATAGCATCTGT) | 3.53
ATAGCATCATGGACCGGTTTTCCCGGTAATCCGTATTTGAC (site CTAGTATCTGT) | 1.8
ATAGGAGCATGGACCGGTTTTCCCGGTAATCCGTATTTGGC (site ATAGGAGCTGC) | 2.91
ATAGTATCATGGACCGGTTTTCCCGGTAATCCGTATTTGCG (site ACAGTATCTTG) | 1.46
ATAGTATCATGGACCGGTTTTCCCGGTAATCCGTATTTGCG (site ATAGTATCTCG) | 3.07
ATAGTTTCATGGACCGGTTTTCCCGGTAATCCGTATTTGAC (site ATAGTTTCTGT) | 2.62
ATAGTTTCATGGACCGGTTTTCCCGGTAATCCGTATTTGAC (site CTAGTATCTGT) | 2.45
ATATCGGCATGGACCGGTTTTCCCGGTAATCCGTATTTGGT (site ATATCGGCTAC) | 0.889
ATATGACCATGGACCGGTTTTCCCGGTAATCCGTATTTGAC (site ATATGACCTGT) | 0
ATATGATCATGGACCGGTTTTCCCGGTAATCCGTATTTGGG (site ATATGATCTCC) | 1.26
ATATGGCCATGGACCGGTTTTCCCGGTAATCCGTATTTGAC (site ATAAGGCCTGT) | 0
ATATGGCCATGGACCGGTTTTCCCGGTAATCCGTATTTGAC (site ATACGGCCTGT) | 0
ATATGGCCATGGACCGGTTTTCCCGGTAATCCGTATTTGAC (site ATAGGGCCTGT) | 0
